The record followed here is PubChem BioAssay (NCI).

Among the test systems are HCT-15 colon; HL-60(TB) leukemia; HS 578T breast; M14 melanoma; NCI-H522 lung; NCI/ADR-RES ovarian; OVCAR-8 ovarian; SK-MEL-5 melanoma; SK-OV-3 ovarian; SK-MEL-28 melanoma.
Common to all, as to assay: NCI tumour cell line growth inhibition, 48 h

Structures are written as SMILES.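 Protocol summary: plate cells (96-well), add compound at 5 concentrations, incubate 48 h, interpolate endpoints linearly. TGI is the concentration that stops growth completely.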 A value given as a limit tells only on which side of the number the result lay.

As to `C=CC(=O)N1C/C(=C\c2ccc(F)cc2)C(=O)/C(=C/c2ccc(F)cc2)C1`, the TGI with HCT-15 colon is 0.433 µM; in the assay with HL-60(TB) leukemia, greater than 100 µM; in the assay with HS 578T breast, 0.876 µM; in the assay with M14 melanoma, 1.38 µM; with NCI-H522 lung, 1.94 µM; in the assay with NCI/ADR-RES ovarian, 20.1 µM. Besides, the TGI was determined as 2.59 µM in the assay on OVCAR-8 ovarian, 3.35 µM in the assay on SK-MEL-5 melanoma and 2.38 µM in the assay on SK-OV-3 ovarian.

On to `O=C1C(=O)C(CCCO)(CCCO)CCCCCCCCC1(CCCO)CCCO`, for which the TGI in the assay on HCT-15 colon is greater than 100 µM; in the assay on HL-60(TB) leukemia it was 29.9 µM; in the assay on HS 578T breast, greater than 100 µM; with M14 melanoma it was greater than 100 µM; with NCI-H522 lung, greater than 100 µM; in the assay on NCI/ADR-RES ovarian it was greater than 100 µM. Further, the TGI in the assay with OVCAR-8 ovarian, with SK-MEL-28 melanoma, in the assay with SK-MEL-5 melanoma and with SK-OV-3 ovarian was greater than 100 µM each time.

Turning to `C1CN(C23OC4(N5CCOCC5)C5C6CC(C7C6C4C72)C53)CCO1` (stereo not drawn), the TGI in the assay with HCT-15 colon, in the assay with HL-60(TB) leukemia, in the assay with HS 578T breast, in the assay with M14 melanoma, in the assay with NCI-H522 lung and in the assay with NCI/ADR-RES ovarian was greater than 100 µM throughout. The TGI in the assay with OVCAR-8 ovarian, in the assay on SK-MEL-28 melanoma, with SK-MEL-5 melanoma and with SK-OV-3 ovarian was greater than 100 µM throughout.

On to `CCSc1nn(-c2c3ccccc3nc3ccccc23)c(=S)s1`, for which the TGI with HCT-15 colon, in the assay on HL-60(TB) leukemia, with HS 578T breast, in the assay on M14 melanoma, in the assay with NCI-H522 lung and in the assay with NCI/ADR-RES ovarian was greater than 100 µM in each case. Also, the TGI with OVCAR-8 ovarian, in the assay on SK-MEL-28 melanoma, with SK-MEL-5 melanoma and with SK-OV-3 ovarian was greater than 100 µM throughout.

Turning to `CN(CCc1ccccn1)C(=S)N/N=C/c1ccccn1`, the TGI in the assay on HCT-15 colon was 35.6 µM; in the assay with HL-60(TB) leukemia it was less than 0.01 µM; in the assay with HS 578T breast, greater than 87.2 µM; in the assay with M14 melanoma, 2.34 µM; with NCI-H522 lung, 0.29 µM; in the assay with NCI/ADR-RES ovarian, 18 µM. Also, the results for the TGI in the assay with SK-MEL-28 melanoma, in the assay on SK-MEL-5 melanoma and with SK-OV-3 ovarian were greater than 100 µM, 0.902 µM and greater than 51.3 µM, respectively.

For the compound `CC(CN(C)C)C(O)(c1ccccc1)c1ccccc1` (stereo not drawn), the TGI in the assay on HCT-15 colon, in the assay with HL-60(TB) leukemia, in the assay with HS 578T breast, with M14 melanoma, in the assay with NCI-H522 lung and with NCI/ADR-RES ovarian was greater than 100 µM in each case. In addition, the TGI with OVCAR-8 ovarian, in the assay with SK-MEL-28 melanoma, in the assay on SK-MEL-5 melanoma and with SK-OV-3 ovarian was greater than 100 µM throughout.

Consider `CCOC(=O)c1c(C)n(CCN2CCN(C)CC2)c2ccc(OC)cc12`, for which the TGI in the assay with HCT-15 colon is 95.8 µM; with HL-60(TB) leukemia, 58 µM; with HS 578T breast it was greater than 100 µM; with M14 melanoma, 30.8 µM; in the assay with NCI-H522 lung, greater than 100 µM; in the assay with NCI/ADR-RES ovarian, greater than 100 µM. The TGI in the assay on OVCAR-8 ovarian was greater than 100 µM; in the assay with SK-MEL-28 melanoma it was 32 µM; with SK-MEL-5 melanoma, 30.8 µM; in the assay with SK-OV-3 ovarian it was greater than 100 µM.

As to `CCCNC(=O)Cn1c(-c2ccccc2)cc2ccccc21`, the TGI in the assay on HCT-15 colon was greater than 100 µM; in the assay with HL-60(TB) leukemia, greater than 100 µM; with HS 578T breast it was greater than 100 µM; in the assay with M14 melanoma, greater than 100 µM; in the assay on NCI-H522 lung, 60.1 µM; with NCI/ADR-RES ovarian, greater than 100 µM. Moreover, the TGI in the assay on OVCAR-8 ovarian, with SK-MEL-28 melanoma, in the assay with SK-MEL-5 melanoma and in the assay with SK-OV-3 ovarian was greater than 100 µM throughout.

With `NC(=O)CN1CCN(c2nc(N3CCCC3)c3nc(Cl)c(NCc4ccccc4)nc3n2)CC1`, the TGI with HCT-15 colon amounted to 17.3 µM; in the assay on HL-60(TB) leukemia, 19.2 µM; in the assay on HS 578T breast, 24.2 µM; in the assay on M14 melanoma, 17.5 µM; in the assay on NCI-H522 lung, 24.1 µM; in the assay with NCI/ADR-RES ovarian it was 40.9 µM. The TGI in the assay on OVCAR-8 ovarian is greater than 50 µM; with SK-MEL-28 melanoma, 18.5 µM; in the assay with SK-MEL-5 melanoma it was 15.7 µM; in the assay on SK-OV-3 ovarian, 20.4 µM.

With `C[C@@H](CC(O)C(O)C(C)(C)O)C1CCC23CC12CCC1[C@@]2(C)CCC(=O)C(C)(C)C2CC(OC2OC(CO)C(O)C(O)C2O)[C@]13C` (stereo partly drawn), the TGI in the assay with HCT-15 colon, with HL-60(TB) leukemia, in the assay on HS 578T breast, in the assay with M14 melanoma, in the assay on NCI-H522 lung and with NCI/ADR-RES ovarian was greater than 10 µM each time. Further, the TGI in the assay on OVCAR-8 ovarian, with SK-MEL-28 melanoma, in the assay on SK-MEL-5 melanoma and in the assay on SK-OV-3 ovarian was greater than 10 µM throughout.

`Clc1cccc(Cl)c1C1ON=C(c2ccccc2)N1C12CC3CC(CC(C3)C1)C2` (stereo not drawn): the TGI in the assay with HCT-15 colon was greater than 100 µM; with HL-60(TB) leukemia, 8.72 µM; in the assay with HS 578T breast it was 87.2 µM; with M14 melanoma it was greater than 100 µM; in the assay on NCI-H522 lung, greater than 100 µM; in the assay with NCI/ADR-RES ovarian it was 84.4 µM. In addition, the TGI with OVCAR-8 ovarian was greater than 100 µM; in the assay with SK-MEL-28 melanoma, greater than 100 µM; with SK-MEL-5 melanoma, 12.1 µM; in the assay on SK-OV-3 ovarian, greater than 100 µM.

`C=C1C(=O)O[C@H]2[C@@H](O)[C@H](C)CCC/C(C)=C/CC[C@@]3(C)O[C@@H]3C[C@@H]12`: the TGI in the assay with HCT-15 colon was 4.68 µM; in the assay on HL-60(TB) leukemia it was greater than 27.4 µM; in the assay with HS 578T breast, greater than 100 µM; in the assay on M14 melanoma, 18.4 µM; in the assay on NCI-H522 lung, 8.28 µM; with NCI/ADR-RES ovarian, 37.9 µM. Moreover, the TGI was greater than 51.2 µM in the assay with OVCAR-8 ovarian, 33.5 µM in the assay on SK-MEL-28 melanoma, 28.1 µM in the assay on SK-MEL-5 melanoma and 34.2 µM in the assay on SK-OV-3 ovarian.

Take `Cc1nc2ccccc2n1CCc1nc2ccccc2[nH]1`: the TGI in the assay on HCT-15 colon, in the assay with HL-60(TB) leukemia, in the assay on HS 578T breast, in the assay on M14 melanoma, with NCI-H522 lung and in the assay on NCI/ADR-RES ovarian was greater than 100 µM throughout. Also, the TGI with OVCAR-8 ovarian, with SK-MEL-28 melanoma, with SK-MEL-5 melanoma and in the assay with SK-OV-3 ovarian was greater than 100 µM throughout.
